Reference: ChEMBL document CHEMBL5385949, “Transient Receptor Potential Melastatin 7 (TRPM7) Ion Channel Inhibitors: Preliminary SAR and Conformational Studies of Xenicane Diterpenoids from the Hawaiian Soft Coral Sarcothelia edmondsoni” (J Nat Prod, 2024)
Blank lines part the entries; values can stand above or below the compound they belong to. Active and inactive are the calls of the source. The rule behind the calls is not given here.

How the values were obtained:
[1] = molecular target: T1, Transient receptor potential cation channel subfamily M member 7 (Mus musculus, UniProt Q923J1); assay: Inhibition of mouse TRPM7 transfected in HEK293 cells assessed as inhibition of channel current in absence of intracellular Mg2+ by whole cell patch clamp analysis; type: cell-based
T1 sequence (Q923J1 whole entry): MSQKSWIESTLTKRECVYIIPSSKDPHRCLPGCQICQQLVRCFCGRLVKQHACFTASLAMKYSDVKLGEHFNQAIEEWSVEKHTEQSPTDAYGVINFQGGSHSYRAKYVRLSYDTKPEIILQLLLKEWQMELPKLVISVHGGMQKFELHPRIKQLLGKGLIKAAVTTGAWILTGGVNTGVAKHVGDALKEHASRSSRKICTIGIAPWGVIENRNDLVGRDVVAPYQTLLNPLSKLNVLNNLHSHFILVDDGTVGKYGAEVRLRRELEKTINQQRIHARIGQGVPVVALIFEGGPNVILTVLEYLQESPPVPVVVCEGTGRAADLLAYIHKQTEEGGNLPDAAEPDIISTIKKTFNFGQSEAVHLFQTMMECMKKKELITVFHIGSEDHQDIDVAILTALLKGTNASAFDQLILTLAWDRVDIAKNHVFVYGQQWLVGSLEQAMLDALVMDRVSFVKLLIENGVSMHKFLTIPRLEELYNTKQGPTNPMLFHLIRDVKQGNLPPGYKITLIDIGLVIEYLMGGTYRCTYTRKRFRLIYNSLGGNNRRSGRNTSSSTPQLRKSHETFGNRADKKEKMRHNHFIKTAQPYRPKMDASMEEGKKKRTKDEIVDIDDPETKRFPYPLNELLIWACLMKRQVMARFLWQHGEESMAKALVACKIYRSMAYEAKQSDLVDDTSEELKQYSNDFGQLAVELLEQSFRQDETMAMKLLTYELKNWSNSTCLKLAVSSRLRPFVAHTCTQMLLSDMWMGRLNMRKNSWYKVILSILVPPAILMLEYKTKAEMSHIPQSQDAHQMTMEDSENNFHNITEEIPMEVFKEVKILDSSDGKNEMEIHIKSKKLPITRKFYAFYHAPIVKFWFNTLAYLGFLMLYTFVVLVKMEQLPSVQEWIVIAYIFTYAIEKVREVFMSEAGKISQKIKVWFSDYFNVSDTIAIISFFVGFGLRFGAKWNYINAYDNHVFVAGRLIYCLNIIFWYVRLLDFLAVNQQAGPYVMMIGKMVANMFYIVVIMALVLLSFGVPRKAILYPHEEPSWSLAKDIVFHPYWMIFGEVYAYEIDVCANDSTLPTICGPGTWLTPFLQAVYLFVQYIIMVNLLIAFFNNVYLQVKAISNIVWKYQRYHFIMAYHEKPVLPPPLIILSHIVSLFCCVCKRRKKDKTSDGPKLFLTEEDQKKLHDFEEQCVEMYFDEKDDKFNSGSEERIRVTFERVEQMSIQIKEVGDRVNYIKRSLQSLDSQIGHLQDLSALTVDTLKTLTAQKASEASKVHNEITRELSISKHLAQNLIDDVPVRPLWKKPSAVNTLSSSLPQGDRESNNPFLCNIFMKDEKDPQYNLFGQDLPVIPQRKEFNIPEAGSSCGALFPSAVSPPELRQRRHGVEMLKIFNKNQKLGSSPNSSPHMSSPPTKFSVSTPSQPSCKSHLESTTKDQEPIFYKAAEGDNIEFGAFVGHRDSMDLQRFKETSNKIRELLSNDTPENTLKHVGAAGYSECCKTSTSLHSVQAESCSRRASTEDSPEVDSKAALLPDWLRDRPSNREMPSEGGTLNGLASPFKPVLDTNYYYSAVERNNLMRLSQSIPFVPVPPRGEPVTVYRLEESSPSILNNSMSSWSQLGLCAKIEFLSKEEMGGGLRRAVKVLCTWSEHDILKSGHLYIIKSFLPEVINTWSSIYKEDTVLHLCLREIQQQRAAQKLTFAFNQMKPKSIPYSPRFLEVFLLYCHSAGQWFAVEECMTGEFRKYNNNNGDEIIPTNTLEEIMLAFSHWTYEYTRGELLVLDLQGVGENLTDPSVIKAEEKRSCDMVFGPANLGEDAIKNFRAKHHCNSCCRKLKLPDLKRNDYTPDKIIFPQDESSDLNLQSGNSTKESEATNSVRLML

[2] = molecular target: T1, Transient receptor potential cation channel subfamily M member 7; assay: Inhibition of mouse TRPM7 transfected in HEK293 cells assessed as inhibition of channel current in presence of 300 uM free intracellular Mg2+ by whole cell patch clamp analysis; type: cell-based
[3] = molecular target: T1, Transient receptor potential cation channel subfamily M member 7; assay: Inhibition of mouse TRPM7 transfected in HEK293 cells assessed as inhibition of channel current in presence of 780 uM free intracellular Mg2+ by whole cell patch clamp analysis; type: cell-based
[4] = molecular target: T1, Transient receptor potential cation channel subfamily M member 7; type: cell-based, HEK293
Description: Inhibition of FLAG-tagged mouse TRPM7 transfected in HEK293 cells assessed as inhibition of channel-mediated Mn2+ influx incubated for ~15 mins and measured for 90 secs by Fura-2-dye based fluorescence analysis

[5] = molecular target: T2, Transient receptor potential cation channel subfamily M member 7 (Homo sapiens, UniProt Q96QT4); assay: Inhibition of human TRPM7 transfected in Tet-inducible HEK293-T-REx cells assessed as inhibition of channel current in presence of 780 uM intracellular Mg2+ by whole cell patch clamp analysis; type: cell-based
T2 sequence (Q96QT4 whole entry): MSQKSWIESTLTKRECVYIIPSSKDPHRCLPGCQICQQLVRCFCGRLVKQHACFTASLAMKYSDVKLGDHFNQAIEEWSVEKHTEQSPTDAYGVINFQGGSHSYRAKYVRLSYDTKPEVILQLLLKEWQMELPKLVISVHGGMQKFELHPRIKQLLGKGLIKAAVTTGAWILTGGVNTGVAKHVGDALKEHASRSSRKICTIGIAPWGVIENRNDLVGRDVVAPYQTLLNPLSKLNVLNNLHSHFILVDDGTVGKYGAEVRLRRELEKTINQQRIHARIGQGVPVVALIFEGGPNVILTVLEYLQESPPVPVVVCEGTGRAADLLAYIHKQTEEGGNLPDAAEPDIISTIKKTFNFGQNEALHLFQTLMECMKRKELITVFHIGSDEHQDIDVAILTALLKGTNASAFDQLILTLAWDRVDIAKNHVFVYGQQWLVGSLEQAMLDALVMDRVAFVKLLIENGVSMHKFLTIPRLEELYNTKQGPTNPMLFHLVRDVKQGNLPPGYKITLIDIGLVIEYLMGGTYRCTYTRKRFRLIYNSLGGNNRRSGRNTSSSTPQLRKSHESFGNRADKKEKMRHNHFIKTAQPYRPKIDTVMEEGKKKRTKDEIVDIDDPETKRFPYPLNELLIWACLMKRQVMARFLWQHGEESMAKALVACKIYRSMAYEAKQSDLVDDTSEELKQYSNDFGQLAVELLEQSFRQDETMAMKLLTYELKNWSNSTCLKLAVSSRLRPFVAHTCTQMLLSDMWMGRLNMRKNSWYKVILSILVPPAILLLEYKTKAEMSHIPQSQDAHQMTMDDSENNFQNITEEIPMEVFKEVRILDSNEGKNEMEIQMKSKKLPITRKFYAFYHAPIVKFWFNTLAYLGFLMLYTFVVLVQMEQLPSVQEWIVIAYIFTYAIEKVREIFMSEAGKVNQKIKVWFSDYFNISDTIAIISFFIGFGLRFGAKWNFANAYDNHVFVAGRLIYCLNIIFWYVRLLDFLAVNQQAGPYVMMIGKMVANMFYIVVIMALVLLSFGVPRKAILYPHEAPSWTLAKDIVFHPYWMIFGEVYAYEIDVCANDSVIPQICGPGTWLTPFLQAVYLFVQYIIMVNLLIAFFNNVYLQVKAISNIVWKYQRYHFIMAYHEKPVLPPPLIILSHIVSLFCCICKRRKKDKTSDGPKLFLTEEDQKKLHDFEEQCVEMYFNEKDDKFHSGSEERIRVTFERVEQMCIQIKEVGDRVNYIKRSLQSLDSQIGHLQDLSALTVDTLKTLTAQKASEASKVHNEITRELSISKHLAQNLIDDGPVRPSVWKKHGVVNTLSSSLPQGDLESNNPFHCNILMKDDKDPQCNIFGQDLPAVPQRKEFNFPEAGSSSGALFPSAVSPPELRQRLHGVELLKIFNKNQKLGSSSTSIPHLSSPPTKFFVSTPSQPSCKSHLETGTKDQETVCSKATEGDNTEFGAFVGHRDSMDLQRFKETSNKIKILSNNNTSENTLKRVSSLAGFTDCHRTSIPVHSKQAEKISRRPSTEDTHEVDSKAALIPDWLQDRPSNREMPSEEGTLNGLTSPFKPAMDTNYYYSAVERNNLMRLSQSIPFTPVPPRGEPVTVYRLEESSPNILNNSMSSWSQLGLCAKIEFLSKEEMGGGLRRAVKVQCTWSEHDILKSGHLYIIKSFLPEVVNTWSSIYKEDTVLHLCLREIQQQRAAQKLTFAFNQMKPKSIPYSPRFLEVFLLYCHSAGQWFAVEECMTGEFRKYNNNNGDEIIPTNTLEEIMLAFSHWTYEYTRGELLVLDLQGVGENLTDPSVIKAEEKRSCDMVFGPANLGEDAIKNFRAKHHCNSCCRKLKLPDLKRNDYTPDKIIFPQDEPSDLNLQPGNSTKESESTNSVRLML

[6] = molecular target: T1, Transient receptor potential cation channel subfamily M member 7; assay: Inhibition of HA-tagged mouse TRPM7 transfected in HEK293 cells assessed as inhibition of channel current by whole cell patch clamp analysis; type: cell-based
[7] = molecular target: T1, Transient receptor potential cation channel subfamily M member 7; assay: Inhibition of mouse TRPM7 expressed in HEK293 cells assessed as inhibition of channel current in presence of 700 uM intracellular Mg2+ by whole cell patch clamp analysis; type: cell-based
[8] = 1-Octanol/water partition coefficient, log P of the compound by LC-MS analysis; type: physicochemical
[9] = molecular target: T2, Transient receptor potential cation channel subfamily M member 7; assay: Covalent inhibition of human TRPM7 transfected in Tet-inducible HEK293-T-REx cells assessed as inhibition of channel current at 10 uM incubated for 50 to 150 secs by whole cell patch clamp analysis; type: cell-based; conditions: time 50-150 sec
[10] = molecular target: T2, Transient receptor potential cation channel subfamily M member 7; assay: Irreversible covalent inhibition of human TRPM7 transfected in Tet-inducible HEK293-T-REx cells assessed as inhibition of channel current at 10 uM incubated for 50 to 150 secs and measured for 10 mins after drug wash-out by whole cell patch clamp analysis; type: cell-based; conditions: time 50-150 sec
[11] = molecular target: T2, Transient receptor potential cation channel subfamily M member 7; assay: Inhibition of human TRPM7 transfected in HEK293 cells assessed as inhibition of channel current by whole cell patch clamp analysis; type: cell-based
[12] = molecular target: T1, Transient receptor potential cation channel subfamily M member 7; assay: Inhibition of mouse TRPM7 transfected in HEK293T cells assessed as inhibition of channel current in absence of intracellular Mg2+ by whole cell patch clamp analysis; type: cell-based

SMILES: C=C1[C@@H]2[C@@H](OC(C)=O)OC=C([C@H](C/C=C(\C)COC(C)=O)OC(C)=O)[C@H]2CC/C(C)=C/C[C@H]1O
IC50 [4]: 12 µM
IC50 [5]: 0.09 µM

SMILES: C=C1[C@@H]2[C@@H](OC(C)=O)OC=C([C@H](C/C=C(\C)COC(C)=O)OC(C)=O)[C@H]2CC[C@]2(C)O[C@H]2C[C@H]1O
IC50 [4]: 13 µM

SMILES: NCCOB(c1ccccc1)c1ccccc1
IC50 [4]: 22 µM

SMILES: C=C1CC/C=C(\C)CC[C@H]2[C@H]1[C@H]1O[C@H](O)[C@]2(/C=C/C=C(\C)COC(C)=O)O1
IC50 [4]: > 150 µM

SMILES: C=C1CC[C@H](OC(C)=O)C(=C)CC[C@@H]2C([C@H](C/C=C(\C)COC(C)=O)OC(C)=O)=CO[C@H](OC(C)=O)[C@@H]12
IC50 [4]: 20 µM

SMILES: C=C1CC/C=C(\C)CC[C@@H]2C([C@H](C/C=C(\C)COC(C)=O)OC(C)=O)=CO[C@H](OC(C)=O)[C@@H]12
IC50 [7]: 0.016 µM
logP [8]: 3.8
IC50 [4]: 20 µM
inhibition [9]: Active
inhibition [10]: Active

SMILES: C=C1CC[C@@H]2O[C@@]2(C)CC[C@@H]2C([C@H](C/C=C(\C)COC(C)=O)OC(C)=O)=CO[C@H](OC(C)=O)[C@@H]12
IC50 [4]: 33 µM

SMILES: CCCCCc1cc(O)c(C/C=C(\C)CCC=C(C)C)c(O)c1C(=O)O [CANNABIGEROLIC ACID]
IC50 [11]: 2.7 µM

SMILES: C=C1CC[C@@H]2O[C@@]2(C)CC[C@@H]2C(C=O)=C[C@@H](/C=C(\C)COC(C)=O)[C@H](O)[C@@H]12
IC50 [4]: > 150 µM

Results, then the compound that gave them:

IC50 [1]: 1.6 µM
IC50 [2]: 5.9 µM
IC50 [3]: 3.9 µM
SMILES: c1ccc2c(c1)CCC[C@H]2Nc1nc2ccccc2[nH]1

IC50 [6]: 0.72 µM
SMILES: CCCCCCCCc1ccc(CCC(N)(CO)CO)cc1 [FINGOLIMOD]

IC50 [4]: > 130 µM
SMILES: C=C1CC/C=C(\C)CC[C@@H]2C([C@@H](O)C/C=C(\C)COC(C)=O)=CO[C@H](OC(C)=O)[C@@H]12

IC50 [12]: 0.11 µM
SMILES: N#Cc1ccc(COC[C@H]2O[C@@H](n3c(NCc4ccc(Cl)c(Cl)c4)nc4c(N)ncnc43)[C@H](O)[C@@H]2O)cc1
